Assay results reported in patent US8426596B2, “Process of producing bleach boosters” (BASF Aktiengesellschaft, priority 2005, dated 2013).
Counter-ions that a name gives are not always drawn.

Legend:
Type in all cases: biochemical
Natalase (alpha amylase) = test: Organic Catalyst/Enzyme Compatibility Test (alpha amylase activity assay), Natalase; conditions: (Ac/Ab)x100; peracetic acid 5.0 ppm; organic catalyst 0.5 ppm; 40° C.; sample at 7 min 45 s
Method: (§1) Organic Catalyst/Enzyme Compatibility Test
(§2) The test described below uses an alpha amylase activity assay to measure the impact of organic catalysts on the enzyme.
(§3) Equipment. UV/Vis spectrophotometer capable of measuring @ 415 nm, heated magnetic stirrer capable of 40° C., 5 ml Luer lock syringe and filters (Acrodisc 0.45 ? μm), pH meter, and balance (4-place analytical).
(§4) Reagents. Merck Amylase Kit (Merck Eurolab, Cat. No. 1.19718.0001); Trizma Base (Sigma Cat # T-1503, or equivalent); Calcium Chloride Dihydrate (Sigma Cat # C-5080, or equivalent); Sodium Thiosulfate Pentahydrate (Sigma Cat # S-6672 or equivalent); Hydrochloric Acid (VWR Cat # JT9535-0, or equivalent); Hardness solution (CTC Group, 3.00 gr/cc or equivalent); Sodium Percarbonate; Peracetic Acid (Aldrich, Cat. #26933-6 or equivalent); Amylase enzymes: Termamyl, Natalase, and Duramyl (Novozymes, Denmark); Granular detergent matrix containing no enzyme, organic catalyst or bleaching agents.
(§5) 1.) Solution Preparation: Prepare the Following:
(§6) • a.) TRIS Assay Buffer. Prepare 1 liter of 0.1M TRIS buffer, 0.5% sodium thiosulphate (W/V), 0.11% calcium chloride (w/v) at pH 8.3. • b.) Blank Detergent Solution. Prepare one liter of 0.5% enzyme and bleach free granular detergent product in deionized water (W/V) that is 250 ppm H2O2 (0.77 gm percarbonate) and 10 gpg hardness (880 UI of hardness). • c.) Termamyl, Duramyl and Natalase Stock. Make 100 ml solutions each of a 0.1633 mg active Termamyl per ml TRIS Buffer, a 0.1159 mg active Natalase per ml TRIS Buffer, and a 0.1596 mg active Duramyl per ml TRIS Buffer. • d.) Organic catalyst stocks. Make a 500 ppm in methanol solution of μm. • e.) Peracetic acid stock. Make a 3955 ppm peracetic acid solution in deionized water. • f.) Amylase reagent. Follow Merck kit instructions for preparing flacons (containers) 1 and 2 using flacon 3 and subsequent mixing of flacons 1 and 2 to produce the final reagent used in the amylase activity analysis. 2.) Sample Analysis • a.) Analysis of sample with enzyme only: Add 100 ml of blank detergent solution to a 150 ml beaker. Place beaker on heated stir plate and bring temperature to 40° C. with stirring. Add Y μl of enzyme stock to the beaker where Y=612 μL for Duramyl, 306 μl for Termamyl, or 918 μl for Natalase. Spike only enzyme of interest. Stir sample for 1 minute. Start timer. At 7 minutes 45 seconds, pull a sample and filter it using a 0.45 μm syringe filter (5 ml syringe). Mix 6 μl of filtered sample with 250 μL of amylase reagent in a cuvette and place the cuvette in a UV/VIS spectrophotometer and monitor change in absorbance at 415 nm. Determine length of time (tE) to the nearest second required to obtain an absorbance reading of 1.0 for each enzyme. Use each enzyme's tE in Steps 2.)b.) and 2.)c.) below. • b.) Analysis of sample with enzyme and peracetic acid only. Follow Step 2.)a.) except after enzyme addition, allow solution to stir for 1 minute then add 127 μl of peracetic acid stock and start timer. Pull sample at 7 minutes 45 seconds as in Step 2.)a.). Once sample and reagent are mixed, record the absorbance at tE for the respective enzyme. Designate such absorbance Ab. • c.) Analysis of sample with enzyme, peracetic acid, and organic catalyst. […] Once sample and reagent are mixed, record the absorbance at tE for the respective enzyme. Designate such absorbance A, 3.) Calculate Enzyme Compatibility Value (ECV) • a.) Calculate the ECV for each specific enzyme: termamyl (ECVter), duramyl (ECVdur) and natalase (ECVnat). […]

[1] = tested on: Termamyl, Duramyl and Natalase (alpha amylases); test: Organic Catalyst/Enzyme Compatibility Test, average over the three amylases; conditions: ECV=(ECVter+ECVdur+ECVnat)/3; peracetic acid 5.0 ppm; organic catalyst 0.5 ppm
Method: as §1, §2, §3, §4, §5, §6

Termamyl (alpha amylase) = target: T1, Termamyl (alpha amylase) (Bacillus licheniformis, UniProt P06278); test: Organic Catalyst/Enzyme Compatibility Test (alpha amylase activity assay), Termamyl; conditions: (Ac/Ab)x100; peracetic acid 5.0 ppm; organic catalyst 0.5 ppm; 40° C.; sample at 7 min 45 s
T1 construct: purchased Novozymes, Denmark
T1 sequence (P06278 30-512): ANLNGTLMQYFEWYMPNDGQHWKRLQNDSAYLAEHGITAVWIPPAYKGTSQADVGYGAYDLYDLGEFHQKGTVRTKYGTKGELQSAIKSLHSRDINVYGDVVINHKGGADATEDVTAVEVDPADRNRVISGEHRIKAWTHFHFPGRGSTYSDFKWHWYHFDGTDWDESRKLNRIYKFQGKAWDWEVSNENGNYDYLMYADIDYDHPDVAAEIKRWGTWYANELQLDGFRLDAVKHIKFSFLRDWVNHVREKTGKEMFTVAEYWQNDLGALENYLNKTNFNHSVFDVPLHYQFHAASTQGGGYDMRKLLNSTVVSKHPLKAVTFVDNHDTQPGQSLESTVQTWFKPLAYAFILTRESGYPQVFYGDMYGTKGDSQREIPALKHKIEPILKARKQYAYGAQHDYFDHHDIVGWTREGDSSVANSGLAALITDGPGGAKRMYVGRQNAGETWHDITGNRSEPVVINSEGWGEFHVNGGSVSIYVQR
Method: as §1, §2, §3, §4, §5, §6

Duramyl (alpha amylase) = test: Organic Catalyst/Enzyme Compatibility Test (alpha amylase activity assay), Duramyl; conditions: (Ac/Ab)x100; peracetic acid 5.0 ppm; organic catalyst 0.5 ppm; 40° C.; sample at 7 min 45 s
Method: as §1, §2, §3, §4, §5, §6

| SMILES | Enzyme Compatibility Value ECVnat (Natalase (alpha amylase)) | Enzyme Compatibility Value ECV [1] | Enzyme Compatibility Value ECVter (Termamyl (alpha amylase)) | Enzyme Compatibility Value ECVdur (Duramyl (alpha amylase)) |
| --- | --- | --- | --- | --- |
| Cc1ccc(CC2(Cc3ccc(C)cc3)C[N+](CCCS(=O)(=O)[O-])=Cc3ccccc32)cc1 [Entry 5, 3,4-dihydro-4,4-di(4-methylphenylmethyl)-2-(3-sulfopropyl)-isoquinolinium, internal salt] | 99 | 100 | 103 | 99 |
| O=S(=O)([O-])OCC[N+]1=Cc2ccccc2C(Cc2ccccc2)(Cc2ccccc2)C1 [Entry 3, 3,4-dihydro-4,4-di(phenylmethyl)-2-[2′-(sulfooxy)ethyl]-isoquinolinium, internal salt] | 103 | 101 | 101 | 100 |
| CC(C)(C)OCC(C[N+]1=Cc2ccccc2CC1)OS(=O)(=O)[O-] (centres unmarked) [Entry 1, Sulfuric acid mono-[2-(3,4-dihydro-isoquinolin-2-yl)-1-((1,1-di-methylethoxy)methyl)ethyl] ester, internal salt, reference compound] | 58 | 65 | 51 | 86 |
| CCCCC(CC)COCC(C[N+]1=Cc2ccccc2CC1)OS(=O)(=O)[O-] (centres unmarked) [Entry 2, Sulfuric acid mono-[2-(3,4-dihydro-isoquinolin-2-yl)-1-(2-ethyl-hexyloxymethyl)-ethyl] ester, internal salt, reference compound] | 57 | 67 | 54 | 90 |
| O=S(=O)([O-])CCC[N+]1=Cc2ccccc2C(Cc2ccccc2)(Cc2ccccc2)C1 [Entry 4, 3,4-dihydro-4,4-dibenzyl-2-(3-sulfopropyl)isoquinolinium, Internal salt] | 104 | 102 | 102 | 99 |
